Measurements as given in US9523100B2, “Pesticidal compositions and related methods” (DOW AGROSCIENCES LLC, priority 2013, dated 2016).

Tests used:
[1] = system: Sweetpotato Whitefly-Crawler (WF) (Bemisia tabaci) (BEMITA); experiment: Insecticidal test for Sweetpotato Whitefly-Crawler (WF) in foliar spray assay on cotton plants; assay type: in vivo; conditions: 216 h, 200 ppm foliar spray on cotton plants, graded after 9 days, Abbott corrected % control, read-out: WF 200 ppm, % Control (or Mortality) rating
Procedure, shortened: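 Whitefly nymph control on egg-infested cotton (eggs laid 4–5 days pre-treatment), foliar spray at 200 ppm test compound. Live late-stage nymphs counted microscopically 9 days later at ~25 °C; control calculated by Abbott's formula relative to acetone-diluent-sprayed plants.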

[2] = system: Green Peach Aphid (GPA) (Myzus persicae) (MYZUPE); experiment: Bioassay for Green Peach Aphid (GPA), foliar spray on cabbage seedlings; assay type: in vivo; conditions: 72 h, 200 ppm foliar spray on cabbage seedlings, graded after three days, Abbott corrected % control, read-out: GPA 200 ppm, % Control (or Mortality) rating
Procedure, shortened: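 Foliar spray test: 200 ppm solutions (0.025% Tween 20 in water, 20% acetone/methanol) applied to both leaf sides of aphid-infested cabbage seedlings. After 3 days at about 25° C, live aphids per plant were counted; control corrected to solvent check via Abbott's formula.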

| SMILES | mortality at 200 ppm [1] | mortality at 200 ppm [2] |
| --- | --- | --- |
| CCN(C(=O)C(C)(C)OC(C)=O)c1cn(-c2cccnc2)nc1Cl [FA73, 1-((3-Chloro-1-(pyridin-3-yl)-1H-pyrazol-4-yl)(ethyl)amino)-2-methyl-1-oxopropan-2-ylacetate] | 0 to 80% | 80 to 100% |
| CCN(C(=O)C(C)OC(=O)CC(F)(F)F)c1cn(-c2cccnc2)nc1Cl (stereo not shown) [FA74, 1-((3-Chloro-1-(pyridin-3-yl)-1H-pyrazol-4-yl)(ethyl)amino)-1-oxopropan-2-yl 3,3,3-trifluoropropanoate] | 0 to 80% | 80 to 100% |
| CC(=O)CCC(=O)N(C)c1cn(-c2cccnc2)nc1Cl [FA75, N-(3-Chloro-1-(pyridin-3-yl)-1H-pyrazol-4-yl)-N-methyl-4-oxopentanamide] | 80 to 100% | 0 to 80% |
| CCN(C(=O)CCC(=O)CCC(F)(F)F)c1cn(-c2cccnc2)nc1Cl [FA76, N-(3-Chloro-1-(pyridin-3-yl)-1H-pyrazol-4-yl)-N-ethyl-7,7,7-trifluoro-4-oxoheptanamide] | 80 to 100% | 0 to 80% |
| CCN(C(=O)CCC(=O)N(C)Cc1ccco1)c1cn(-c2cccnc2)nc1Cl [FA77, N1-(3-Chloro-1-(pyridin-3-yl)-1H-pyrazol-4-yl)-N1-ethyl-N4-(furan-2-ylmethyl)-N4-methylsuccinamide] | 80 to 100% | 0 to 80% |
